{"source": "patent US11352399B2", "about": "“Peptide for toll-like receptor (TLR) inhibition and pharmaceutical composition comprising same” (GENESEN CO., LTD., priority 2017, dated 2022)", "key": {"TLR4 signaling pathways": {"system": "TLR4 signaling pathways", "experiment": "Western blotting of NF-κB, IRF3 and MAPK in LPS-treated RAW 264.7 cells", "format": "cell-based, mouse", "method": "In order to perform Western blotting, a pre-protein extraction solution (M-PER, Thermo Fisher Scientific Inc.) was mixed with a protease and phosphatase inhibitor mixture, and was added to RAW 264.7 cell or hPBMC cell pellets. The pellets were cooled for 10 minutes, and then the lysates were centrifuged at 16000×g for 10 minutes. Then, NE-PER nuclear and cytoplasmic extraction reagents (Thermo Fisher Scientific Inc.) were used to extract cytoplasmic and nuclear proteins, respectively, and a BCA kit (Sigma-Alderich Co. LLC) was used to measure concentrations of the proteins. Subsequently, the same amounts of proteins were developed on SDS-polyacrylamide gels, and electrophoresis was performed using the Mini-PROTEAN Tetra Cell two-dimensional electrophoresis system (Bio-Rad Laboratories, Hercules, Calif., USA). The membrane was immunoblotted with primary antibodies by gentle shaking overnight at a temperature of 4° C. (in which the primary antibodies were antibodies against p-p65, p-JNK, p-IRF3, ERK, p38, and human IL-1β (Cell Signaling Technology Inc., Danvers, Mass., USA); p-ERK, p-p38, Iκ-Bα, JNK, ATF3, COX2, caspase-1, and β-actin (Santa Cruz Biotechnology Inc., Santa Cruz, Calif., USA); iNOS (BD Biosciences); IL-6 and mouse IL-1β (R&D Systems Inc., Minneapolis, Minn., USA); TNF-α (Thermo Fisher Scientific, Inc.); NLRP3 (Adipogen, San Diego, Calif., USA)). Then, after thorough shaking with PBST, the membrane was incubated with anti-mouse/-rabbit HRP-conjugated secondary antibodies (Thermo Fisher Scientific Inc.) for 2 hours; and the proteins were detected with SuperSignal West Pico ECL solution (Thermo Fisher Scientific Inc.) and were visualized with the Fuji LAS-3000 system (Fujifilm, Tokyo, Japan).\nTLR4-mediated responses induced by LPS induce direct interactions between the TIR domain of TIRAP and MyD88, thereby activating MyD88-dependent signaling pathways. In addition, the TLR4-mediated responses induce interactions between the TIR domain of TRAM and TRIF, thereby also activating MyD88-independent signaling pathways. […]"}, "TLR2/6": {"target": "T1, TLR2/6 (Mus musculus, UniProt Q9EPW9+Q9QUN7)", "T1 construct": "host or cells: RAW 264.7", "T1 sequence (Q9QUN7 25-784)": "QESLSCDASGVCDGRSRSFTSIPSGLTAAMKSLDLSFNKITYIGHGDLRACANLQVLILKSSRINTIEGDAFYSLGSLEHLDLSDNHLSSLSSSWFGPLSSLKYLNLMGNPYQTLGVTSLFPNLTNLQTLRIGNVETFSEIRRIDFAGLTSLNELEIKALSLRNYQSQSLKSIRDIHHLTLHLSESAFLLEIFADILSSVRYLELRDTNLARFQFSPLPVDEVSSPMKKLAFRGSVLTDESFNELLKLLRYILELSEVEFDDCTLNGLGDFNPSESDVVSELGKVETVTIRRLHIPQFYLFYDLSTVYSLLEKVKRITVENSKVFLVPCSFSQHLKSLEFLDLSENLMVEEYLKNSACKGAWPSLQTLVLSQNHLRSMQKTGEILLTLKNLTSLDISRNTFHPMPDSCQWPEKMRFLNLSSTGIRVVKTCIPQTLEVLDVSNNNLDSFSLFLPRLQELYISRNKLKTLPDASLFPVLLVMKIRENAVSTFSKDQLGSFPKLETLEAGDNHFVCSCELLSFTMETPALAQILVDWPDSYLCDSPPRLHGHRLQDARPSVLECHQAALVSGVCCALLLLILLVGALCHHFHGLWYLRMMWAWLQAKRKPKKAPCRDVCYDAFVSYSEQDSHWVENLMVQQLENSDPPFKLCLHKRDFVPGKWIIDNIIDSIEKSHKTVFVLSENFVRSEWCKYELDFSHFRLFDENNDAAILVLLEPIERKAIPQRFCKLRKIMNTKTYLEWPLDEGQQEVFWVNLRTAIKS", "T1 sequence (Q9EPW9 28-795)": "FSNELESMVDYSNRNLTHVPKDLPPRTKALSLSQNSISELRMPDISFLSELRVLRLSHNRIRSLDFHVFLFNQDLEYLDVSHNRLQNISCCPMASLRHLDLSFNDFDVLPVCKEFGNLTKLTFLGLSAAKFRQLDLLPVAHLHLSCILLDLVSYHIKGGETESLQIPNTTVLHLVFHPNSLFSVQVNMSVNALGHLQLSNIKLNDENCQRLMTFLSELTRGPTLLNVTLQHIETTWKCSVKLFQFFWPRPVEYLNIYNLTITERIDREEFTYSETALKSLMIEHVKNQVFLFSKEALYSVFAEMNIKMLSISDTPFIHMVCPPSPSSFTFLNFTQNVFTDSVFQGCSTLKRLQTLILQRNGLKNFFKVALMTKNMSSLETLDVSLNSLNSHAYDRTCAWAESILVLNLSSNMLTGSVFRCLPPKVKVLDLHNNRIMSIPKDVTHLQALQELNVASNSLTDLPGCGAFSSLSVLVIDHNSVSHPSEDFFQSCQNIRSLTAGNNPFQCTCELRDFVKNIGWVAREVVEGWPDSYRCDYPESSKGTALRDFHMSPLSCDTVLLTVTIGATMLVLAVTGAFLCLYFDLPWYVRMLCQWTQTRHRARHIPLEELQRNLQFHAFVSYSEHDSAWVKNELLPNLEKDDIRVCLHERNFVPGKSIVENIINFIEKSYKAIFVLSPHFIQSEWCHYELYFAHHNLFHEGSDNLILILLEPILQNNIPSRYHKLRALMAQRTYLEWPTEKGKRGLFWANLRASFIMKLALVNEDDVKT", "experiment": "TNF-α secretion in RAW 264.7 cells with FSL-1", "format": "cell-based"}, "NLRP3 inflammasome [1]": {"system": "NLRP3 inflammasome", "experiment": "Western blotting of NLRP3 inflammasome molecules in LPS/ATP-treated mBMDM cells", "format": "cell-based, mouse"}, "[2]": {"system": "LPS-injected C57BL/6J mice", "experiment": "Plasma cytokine secretion in LPS-injected mice", "format": "in vivo, mouse", "details": "TIP1 10 nmol/g i.p., 1 hour later LPS 5 μg/g, blood 1 or 2 hours", "method": "All animal experiments were conducted under approval of the Institutional Animal Care and Use Committee (KHNMC AP 2016-006). […] The control was injected with the same volume of PBS. Subsequently, the plasma was isolated through centrifugation from the mouse blood and stored at −80° C. until analysis of secretion levels. TNF-α, IL-12p40 (diluted at 1:100), and IL-6 (diluted at 1:100) levels in the plasma were measured using mouse TNF-α, IL-12p40, IL-6 ELISA MAX Deluxe ELISA kits (BioLegend, San Diego, Calif., USA). Absorbance was measured at 450 nm using a microplate reader spectrophotometer (Molecular Devices In.), and the results were analyzed using Softmax Pro 5.3 software (Molecular Devices Inc.). The results are illustrated in FIGS. 14(a)-14(c)."}, "[3]": {"system": "LPS-induced sepsis model BALB/c mice", "experiment": "Survival rate in LPS-induced sepsis model", "format": "in vivo, mouse", "method": "The control was injected with the same volume of PBS. The results are illustrated in FIG. 18."}, "NLRP3 inflammasome [4]": {"system": "NLRP3 inflammasome", "experiment": "Western blotting of NLRP3 inflammasome molecules in LPS/ATP-treated THP1 cells", "format": "cell-based, human"}, "RAW 264.7 cells": {"system": "RAW 264.7 cells", "experiment": "Intracytoplasmic NO and ROS (DAF-FM, DCF-DA) in RAW 264.7 cells", "format": "cell-based, mouse", "details": "TIP1 and LPS", "method": "RAW 264.7 cells were dispensed into 6-cm dishes (SPL Life Sciences, Pocheon, Korea) to a cell number of 1×10^6 cells/well and incubation was performed overnight. Subsequently, treatment with TIP1 was performed and respective staining with DAF-FM and DCF-DA (Thermo Fisher Scientific, Inc.) was performed. Then, incubation was performed for 1 hour. Thereafter, the cells were collected by centrifugation at 200×g for 5 minutes, transferred to brown tubes, and stored in PBS at a temperature of 4° C. The intensities of DAF-FM, DCF-DA fluorescent materials were measured using FACSAria III with Diva software (BD Biosciences), and quantified.\nIn addition, according to the method described in Example 2-7, a NO level in the culture supernatant of RAW 264.7 cells was measured using a NO detection kit. The results are illustrated in FIGS. 5(a)-5(c)."}, "[5]": {"system": "C57BL/6J mice, mouse sepsis model", "experiment": "Renal and hepatic damage markers and cytokines in plasma, mouse sepsis model (24 hours)", "format": "in vivo", "details": "TIP1 and LPS", "method": "Using the isolated plasma, secretion levels of TNF-α and IL-6 were measured by the method in Experimental Example 9, and changes in secretion levels of the renal damage markers, blood urea nitrogen (BUN) and creatinine (Cr), and the hepatic damage markers, aspartate aminotransferase (AST) and alanine aminotransferase (ALT) were analyzed through VETTEST-8008-system (IDEXX). The results are illustrated in FIGS. 16(a)-16(f)."}, "[6]": {"details": "LPS together with TIP1, FIG. 2(a)"}, "[7]": {"details": "severe sepsis model, LPS 10 μg/g, TIP1 10 nmol/g"}}, "data": [{"sequence": "RQIKIWFQNRRMKWKKSHCRVLLI (TIP1)", "values": [{"measurement": "NF-κB activity (Western blotting)", "setting": "TLR4 signaling pathways; [6]", "value": "NF-κB activity was inhibited"}, {"measurement": "degree of degradation of Iκ-Bα, and activity of IRF3 and ATF3", "setting": "TLR4 signaling pathways; [6]", "value": "decreased"}, {"measurement": "MAPK activity (phosphorylation of ERK, JNK, p38)", "setting": "TLR4 signaling pathways; LPS together with TIP1, FIG. 2(b)", "value": "MAPK activity was inhibited"}, {"measurement": "secretion level of TNF-α", "setting": "TLR2/6", "value": "decreased"}, {"measurement": "intracellular expression level of NLRP3", "setting": "NLRP3 inflammasome [1]", "value": "remarkably decreased"}, {"measurement": "intracellular expression level of active caspase-1 (10 kDa)", "setting": "NLRP3 inflammasome [1]", "value": "remarkably decreased"}, {"measurement": "intracellular expression level of mature IL-1β (17 kDa)", "setting": "NLRP3 inflammasome [1]", "value": "remarkably decreased"}, {"measurement": "secretion level of IL-6 in plasma", "setting": "[2]", "value": "remarkably decreased"}, {"measurement": "secretion level of IL-12p40 in plasma", "setting": "[2]", "value": "remarkably decreased"}, {"measurement": "secretion level of TNF-α in plasma", "setting": "[2]", "value": "remarkably decreased"}, {"measurement": "survival rate compared with only LPS", "setting": "[3]; BALB/c mice, TIP1 10 nmol/g and LPS 5 or 10 μg/g, 5 days", "value": "increased survival rate"}, {"measurement": "survival rate maintained for 5 days", "setting": "[3]; mild sepsis model, LPS 5 μg/g, TIP1 10 nmol/g", "value": 30, "unit": "%"}, {"measurement": "decrease of survival rate after two days", "setting": "[3]; [7]", "value": 90, "unit": "%"}, {"measurement": "survival rate maintained for one day", "setting": "[3]; [7]", "value": 100, "unit": "%"}, {"measurement": "intracellular expression level of NLRP3", "setting": "NLRP3 inflammasome [4]", "value": "remarkably decreased"}, {"measurement": "intracellular expression level of active caspase-1 (10 kDa)", "setting": "NLRP3 inflammasome [4]", "value": "remarkably decreased"}, {"measurement": "intracellular expression level of mature IL-1β (17 kDa)", "setting": "NLRP3 inflammasome [4]", "value": "remarkably decreased"}, {"measurement": "generation level of NO in the cytoplasm", "setting": "RAW 264.7 cells; DAF-FM", "value": "effectively decreased"}, {"measurement": "generation level of ROS in the cytoplasm", "setting": "RAW 264.7 cells; DCF-DA", "value": "effectively decreased"}, {"measurement": "alanine aminotransferase (ALT), hepatic damage marker", "setting": "[5]", "value": "remarkably decreased"}, {"measurement": "aspartate aminotransferase (AST), hepatic damage marker", "setting": "[5]", "value": "remarkably decreased"}, {"measurement": "blood urea nitrogen (BUN), renal damage marker", "setting": "[5]", "value": "remarkably decreased"}, {"measurement": "creatinine (Cr), renal damage marker", "setting": "[5]", "value": "remarkably decreased"}, {"measurement": "secretion level of IL-6 in plasma", "setting": "[5]", "value": "remarkably decreased"}, {"measurement": "secretion level of TNF-α in plasma", "setting": "[5]", "value": "remarkably decreased"}]}]}
